Test results published in ChEMBL document CHEMBL1201862, “PubChem BioAssay data set” (2004).
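48-hour exposure; five concentrations; linearly interpolated endpoints. The concentration for 50% growth inhibition is given as GI50.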 Active and inactive are the calls of the source. No stated cut-off is given here; in the data, active = GI50 up to about 1.1 µM and inactive = higher.

Experiments:
Assay in all cases: growth of human tumour cells (NCI), 48 h
786-0 = tested on: 786-0
A498 = tested on: A498
A549 = tested on: A549
ACHN = tested on: ACHN
BT-549 = tested on: BT-549
CAKI-1 = tested on: CAKI-1
CCRF-CEM = tested on: CCRF-CEM
COLO 205 = tested on: COLO 205
DU-145 = tested on: DU-145
EKVX = tested on: EKVX
HCC 2998 = tested on: HCC 2998
HCT-116 = tested on: HCT-116
HCT-15 = tested on: HCT-15
HL-60 = tested on: HL-60
HOP-62 = tested on: HOP-62
HOP-92 = tested on: HOP-92
HT-29 = tested on: HT-29
Hs-578T = tested on: Hs-578T
IGROV-1 = tested on: IGROV-1
K562 = tested on: K562
KM12 = tested on: KM12
LOX IMVI = tested on: LOX IMVI
M14 = tested on: M14
MCF7 = tested on: MCF7
MDA-MB-231 = tested on: MDA-MB-231
MDA-MB-435 = tested on: MDA-MB-435
MDA-N = tested on: MDA-N
MOLT-4 = tested on: MOLT-4
Malme-3M = tested on: Malme-3M
NCI-H226 = tested on: NCI-H226
NCI-H23 = tested on: NCI-H23
NCI-H460 = tested on: NCI-H460
NCI-H522 = tested on: NCI-H522
NCI/ADR-RES = tested on: NCI/ADR-RES
OVCAR-3 = tested on: OVCAR-3
OVCAR-4 = tested on: OVCAR-4
OVCAR-5 = tested on: OVCAR-5
OVCAR-8 = tested on: OVCAR-8
PC-3 = tested on: PC-3
RXF 393 = tested on: RXF 393
SF-268 = tested on: SF-268
SF-295 = tested on: SF-295
SF-539 = tested on: SF-539
SK-MEL-28 = tested on: SK-MEL-28
SK-MEL-2 = tested on: SK-MEL-2
SK-MEL-5 = tested on: SK-MEL-5
SK-OV-3 = tested on: SK-OV-3
SN12C = tested on: SN12C
SNB-19 = tested on: SNB-19
SNB-75 = tested on: SNB-75
SW-620 = tested on: SW-620
T47D = tested on: T47D
TK-10 = tested on: TK-10
U-251 = tested on: U-251
UACC-257 = tested on: UACC-257
UACC-62 = tested on: UACC-62
UO-31 = tested on: UO-31
RPMI-8226 = tested on: RPMI-8226
SR = tested on: SR

**Q.** With COC(=O)c1ccccc1C1CN=NC12Cc1c(C)cc(C)cc1C2=O (configuration not stated) as the compound, how does the GI50 (786-0) read?
**A.** > 100 µM (inactive)

**Q.** And the GI50 (A498)?
**A.** > 100 µM (inactive)

**Q.** What about the GI50 (A549) of the same compound?
**A.** > 100 µM (inactive)

**Q.** What about the GI50 (ACHN) of the same compound?
**A.** > 100 µM (inactive)

**Q.** What about the GI50 (BT-549) of the same compound?
**A.** > 100 µM (inactive)

**Q.** What about the GI50 (CAKI-1) of the same compound?
**A.** > 100 µM (inactive)

**Q.** And the GI50 (CCRF-CEM)?
**A.** > 100 µM (inactive)

**Q.** And the GI50 (COLO 205)?
**A.** > 100 µM (inactive)

**Q.** What about the GI50 (DU-145) of the same compound?
**A.** > 100 µM (inactive)

**Q.** And the GI50 (EKVX)?
**A.** > 100 µM (inactive)

**Q.** What about the GI50 (HCC 2998) of the same compound?
**A.** > 100 µM (inactive)

**Q.** And the GI50 (HCT-116)?
**A.** > 100 µM (inactive)

**Q.** What about the GI50 (HCT-15) of the same compound?
**A.** > 100 µM

**Q.** And the GI50 (HL-60)?
**A.** > 100 µM (inactive)

**Q.** And the GI50 (HOP-62)?
**A.** > 100 µM (inactive)

**Q.** And the GI50 (HOP-92)?
**A.** > 100 µM (inactive)

**Q.** And the GI50 (HT-29)?
**A.** > 100 µM (inactive)

**Q.** What about the GI50 (Hs-578T) of the same compound?
**A.** > 100 µM (inactive)

**Q.** What about the GI50 (IGROV-1) of the same compound?
**A.** > 100 µM (inactive)

**Q.** And the GI50 (K562)?
**A.** > 100 µM (inactive)

**Q.** And the GI50 (KM12)?
**A.** > 100 µM (inactive)

**Q.** What about the GI50 (LOX IMVI) of the same compound?
**A.** > 100 µM (inactive)

**Q.** And the GI50 (M14)?
**A.** > 100 µM (inactive)

**Q.** What about the GI50 (MCF7) of the same compound?
**A.** > 100 µM (inactive)

**Q.** What about the GI50 (MDA-MB-231) of the same compound?
**A.** 45.4 µM (inactive)

**Q.** And the GI50 (MDA-MB-435)?
**A.** > 100 µM (inactive)

**Q.** What about the GI50 (MDA-N) of the same compound?
**A.** > 100 µM (inactive)

**Q.** And the GI50 (MOLT-4)?
**A.** > 100 µM (inactive)

**Q.** And the GI50 (Malme-3M)?
**A.** > 100 µM (inactive)

**Q.** What about the GI50 (NCI-H226) of the same compound?
**A.** > 100 µM (inactive)

**Q.** What about the GI50 (NCI-H23) of the same compound?
**A.** > 100 µM (inactive)

**Q.** What about the GI50 (NCI-H460) of the same compound?
**A.** > 100 µM (inactive)

**Q.** And the GI50 (NCI-H522)?
**A.** 8.34 µM (inactive)

**Q.** And the GI50 (NCI/ADR-RES)?
**A.** > 100 µM (inactive)

**Q.** And the GI50 (OVCAR-3)?
**A.** > 100 µM (inactive)

**Q.** What about the GI50 (OVCAR-4) of the same compound?
**A.** > 100 µM (inactive)

**Q.** And the GI50 (OVCAR-5)?
**A.** > 100 µM (inactive)

**Q.** What about the GI50 (OVCAR-8) of the same compound?
**A.** > 100 µM (inactive)

**Q.** And the GI50 (PC-3)?
**A.** > 100 µM (inactive)

**Q.** And the GI50 (RXF 393)?
**A.** > 100 µM (inactive)

**Q.** What about the GI50 (SF-268) of the same compound?
**A.** > 100 µM (inactive)

**Q.** What about the GI50 (SF-295) of the same compound?
**A.** > 100 µM (inactive)

**Q.** And the GI50 (SF-539)?
**A.** > 100 µM (inactive)

**Q.** And the GI50 (SK-MEL-28)?
**A.** > 100 µM (inactive)

**Q.** What about the GI50 (SK-MEL-2) of the same compound?
**A.** > 100 µM (inactive)

**Q.** And the GI50 (SK-MEL-5)?
**A.** > 100 µM (inactive)

**Q.** What about the GI50 (SK-OV-3) of the same compound?
**A.** > 100 µM (inactive)

**Q.** And the GI50 (SN12C)?
**A.** > 100 µM (inactive)

**Q.** And the GI50 (SNB-19)?
**A.** > 100 µM (inactive)

**Q.** And the GI50 (SNB-75)?
**A.** 58.2 µM (inactive)

**Q.** What about the GI50 (SW-620) of the same compound?
**A.** > 100 µM (inactive)

**Q.** What about the GI50 (T47D) of the same compound?
**A.** > 100 µM (inactive)

**Q.** What about the GI50 (TK-10) of the same compound?
**A.** > 100 µM (inactive)

**Q.** What about the GI50 (U-251) of the same compound?
**A.** > 100 µM (inactive)

**Q.** And the GI50 (UACC-257)?
**A.** > 100 µM (inactive)

**Q.** And the GI50 (UACC-62)?
**A.** > 100 µM (inactive)

**Q.** What about the GI50 (UO-31) of the same compound?
**A.** > 100 µM (inactive)

**Q.** Which results are given for CCN(CC)c1ccc2cc(C(=O)Nc3ccccc3)c(=N)oc2c1?
**A.** GI50 (786-0): > 100 µM (inactive); GI50 (A549): > 100 µM (inactive); GI50 (ACHN): > 100 µM (inactive); GI50 (BT-549): > 100 µM (inactive); GI50 (CAKI-1): > 100 µM (inactive); GI50 (CCRF-CEM): > 100 µM (inactive); GI50 (COLO 205): > 100 µM (inactive); GI50 (DU-145): > 100 µM (inactive); GI50 (EKVX): > 100 µM (inactive); GI50 (HCC 2998): > 100 µM (inactive); GI50 (HCT-116): > 100 µM (inactive); GI50 (HCT-15): > 100 µM; GI50 (HL-60): > 100 µM (inactive); GI50 (HOP-62): > 100 µM (inactive); GI50 (HOP-92): > 100 µM (inactive); GI50 (HT-29): > 100 µM (inactive); GI50 (Hs-578T): > 100 µM (inactive); GI50 (IGROV-1): > 100 µM (inactive); GI50 (K562): > 100 µM (inactive); GI50 (KM12): > 100 µM (inactive); GI50 (LOX IMVI): > 100 µM (inactive); GI50 (M14): > 100 µM (inactive); GI50 (MCF7): > 100 µM (inactive); GI50 (MDA-MB-231): > 100 µM (inactive); GI50 (MDA-MB-435): > 100 µM (inactive); GI50 (MDA-N): > 100 µM (inactive); GI50 (MOLT-4): > 100 µM (inactive); GI50 (Malme-3M): > 100 µM (inactive); GI50 (NCI-H226): > 100 µM (inactive); GI50 (NCI-H460): > 100 µM (inactive); GI50 (NCI/ADR-RES): > 100 µM (inactive); GI50 (OVCAR-4): > 100 µM (inactive); GI50 (OVCAR-5): > 100 µM (inactive); GI50 (OVCAR-8): > 100 µM (inactive); GI50 (PC-3): > 100 µM (inactive); GI50 (RPMI-8226): > 100 µM (inactive); GI50 (RXF 393): > 100 µM (inactive); GI50 (SF-268): > 100 µM (inactive); GI50 (SF-295): > 100 µM (inactive); GI50 (SF-539): > 100 µM (inactive); GI50 (SK-MEL-28): > 100 µM (inactive); GI50 (SK-MEL-2): > 100 µM (inactive); GI50 (SK-MEL-5): > 100 µM (inactive); GI50 (SK-OV-3): > 100 µM (inactive); GI50 (SN12C): > 100 µM (inactive); GI50 (SNB-19): > 100 µM (inactive); GI50 (SNB-75): > 100 µM (inactive); GI50 (SR): > 100 µM (inactive); GI50 (SW-620): > 100 µM (inactive); GI50 (T47D): > 100 µM (inactive); GI50 (TK-10): > 100 µM (inactive); GI50 (U-251): > 100 µM (inactive); GI50 (UACC-257): > 100 µM (inactive); GI50 (UACC-62): > 100 µM (inactive); GI50 (UO-31): > 100 µM (inactive)
